Target: T1, TCPTP (Homo sapiens, UniProt P17706)
T1 construct: fragments of TCPTP (residues: 1–387); His6 (N, cleaved yes); made in house; host or cells: E. coli BL21 (DE3) RIL
T1 sequence (P17706 1-387 isoform P17706-2): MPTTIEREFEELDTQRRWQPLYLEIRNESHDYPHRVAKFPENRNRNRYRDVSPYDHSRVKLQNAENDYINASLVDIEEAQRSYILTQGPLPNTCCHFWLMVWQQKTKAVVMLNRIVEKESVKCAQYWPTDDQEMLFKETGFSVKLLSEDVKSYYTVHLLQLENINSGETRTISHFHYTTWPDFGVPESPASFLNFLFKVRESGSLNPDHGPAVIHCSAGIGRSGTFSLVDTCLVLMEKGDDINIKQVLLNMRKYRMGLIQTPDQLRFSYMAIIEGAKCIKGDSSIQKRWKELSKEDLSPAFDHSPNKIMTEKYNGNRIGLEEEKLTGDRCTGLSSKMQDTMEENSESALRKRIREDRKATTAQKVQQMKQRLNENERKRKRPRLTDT
Test: EC50 assay: TCPTP activation by ITGA1 peptides (pEGFR peptide-1 dephosphorylation)
Format: biochemical
Conditions: 1 nM TCPTP, 50 μM pEGFR peptide-1, pH 7.4, 30 °C 30 min, n = 3
Excerpt: Polymerase chain reaction (PCR) fragments of TCPTP (residues: 1–387) TCPTPCAT (catalytic domain, residues: 1–288, 1–302 or 1–314), TCPTPTail (C-terminal tail, residues: 289–387 or 303–387) were amplified from full-length human TCPTP (TC45 isoform). TCPTP, TCPTPCAT (residues: 1–288, 1–314), and TCPTPTail (residues: 289–387) fragments were cloned into pMCSG7 including a N-terminal His6-tag using ligation-independent cloning. For all NMR experiments, the PCR fragments of TCPTP, TCPTPCAT (residues: 1–302) and TCPTPTail (residue: 303–387) were sub-cloned into pRP1B as previously described.
To determine the EC50, synthesized ITGA1 peptides (ITGA1_FCT, ITGA1_TCT and ITGA1_TR) were mixed with TCPTP, and phosphatase activity was measured using the phospho-EGFR peptides (pEGFR peptide-1) as substrate. Lyophilized powder of all peptides was dissolved in 25 mM Hepes pH 7.4, 50 mM NaCl. For the assay, the TCPTP concentration was fixed at 1 nM and substrate phospho-peptide at 50 μM. […] The absorbance of the reaction mixture was measured at 650 nm, which was converted to the amount of phosphate produced in reaction based on the standard curve generated from the known phosphate concentration. Data obtained from the reaction was fitted using nonlinear regression mode and EC50 values were calculated based on the equation function “Log(agonist) vs. response-variable slope” using Graph Pad Prism 9.0.

RPLKKKMEKRPLKKKMEK [ITGA1_TR, ITGA1 tandem repeat (2x ITGA1_TCT): …]
activation in EC50 assays (rank): strongest activation
